Source: ChEMBL document CHEMBL5154794, “Design, synthesis and biological evaluation of protease inhibitors containing morpholine cores with remarkable potency against both HIV-1 subtypes B and C” (Eur J Med Chem, 2022)
pEC50, pIC50: −log10 of the molar value.

Columns and labels:
[1] = Cytotoxicity against human HEK-293T cells after 24 hrs by CCK-8 assay; assay type: toxicity, cell-based
[2] = molecular target: Human immunodeficiency virus type 1 protease (Human immunodeficiency virus 1, UniProt Q72874); experiment: Inhibition of HIV-1 protease using Arg-Glu (EDANS)-Ser-Gln-Asn-Tyr-Pro-lle-Val-Gln-Lys (DABCYL)-Arg as substrate preincubated for 20 to 30 mins followed by substrate addition and measured by FRET assay
HIV-1 protease = experiment: Selectivity index, ratio IC50 for cytotoxicity against human HEK-293T cells over IC50 for inhibition of HIV-1 protease; assay type: toxicity, cell-based; settings: read-out: Ratio CC50/IC50
[3] = system: Human immunodeficiency virus 1; experiment: Antiviral activity against HIV1 subtype C isolate Indie; assay type: functional, organism-based; settings: Human immunodeficiency virus 1, subtype C isolate Indie
[4] = system: Human immunodeficiency virus 1; experiment: Antiviral activity against HIV1 NL4-3 Env-deficient VSV-G pseudotyped virus infected in human SUP-T1 cells assessed as inhibition of late stage viral production at 100 nM measured after 48 hrs by luciferase assay relative to control; assay type: functional; settings: Human immunodeficiency virus 1, NL4-3, SUP-T1
[5] = system: Human immunodeficiency virus 1; experiment: Antiviral activity against wild type HIV1 NL4-3; assay type: functional, organism-based; settings: Human immunodeficiency virus 1, NL4-3
[6] = system: Human immunodeficiency virus 1; experiment: Antiviral activity against DRV resistant HIV1; assay type: functional, organism-based
[7] = system: Human immunodeficiency virus 1; experiment: Antiviral activity against HIV1 subtype C isolate ZM246; assay type: functional, organism-based; settings: Human immunodeficiency virus 1, subtype C isolate ZM246
[8] = system: Human immunodeficiency virus 1; experiment: Antiviral activity against HIV1 NL4-3 Env-deficient VSV-G pseudotyped virus infected in human SUP-T1 cells assessed as inhibition of late stage viral production at 10 uM measured after 48 hrs by luciferase assay relative to control; assay type: functional; settings: Human immunodeficiency virus 1, NL4-3, SUP-T1
[9] = Selectivity index, ratio EC50 for Antiviral activity against DRV resistant HIV1 over EC50 for wild type HIV1 NL4-3

Row | SMILES | CC50 at 24 h [1] [nM] | pIC50 [2] | selectivity ratio (HIV-1 protease) | pEC50 [3] | inhibition at 0.1 µM [4] [%] | pEC50 [5] | pEC50 [6] | pEC50 [7] | inhibition at 10 µM [8] [%] | Ratio EC50 [9]
1 | CC(C)CN(C[C@@H](O)[C@H](Cc1ccccc1)NC(=O)OC[C@H]1CN(C)CCO1)S(=O)(=O)c1ccc(NO)cc1 | > 200000 | 7.86 | > 14400 |  |  |  |  |  |  | 
2 | CC(C)CN(C[C@@H](O)[C@H](Cc1ccccc1)NC(=O)O[C@H]1CO[C@H]2OCC[C@H]21)S(=O)(=O)c1ccc(N)cc1 | > 200000 |  |  | 8.90 | 100 | 8.72 | 6.96 | 8.70 |  | 
3 | CC(C)CN(C[C@@H](O)[C@H](Cc1ccccc1)NC(=O)OC[C@H]1CNCCO1)S(=O)(=O)c1ccc(O)cc1 | > 200000 | 8.72 | > 105000 |  |  |  |  |  |  | 
4 | CC(C)CN(C[C@@H](O)[C@H](Cc1ccccc1)NC(=O)CN1CCS(=O)(=O)CC1)S(=O)(=O)c1ccc(NO)cc1 | > 200000 | 7.32 | > 4220 |  |  |  |  |  |  | 
5 | CC(C)CN(C[C@@H](O)[C@H](Cc1ccccc1)NC(=O)[C@@H]1COCCN1)S(=O)(=O)c1ccc(S(C)(=O)=O)cc1 | > 200000 | 6.34 | > 440 |  |  |  |  |  |  | 
6 | CC(C)CN(C[C@@H](O)[C@H](Cc1ccccc1)NC(=O)[C@@H]1COCCN1)S(=O)(=O)c1ccc(N)cc1 | > 200000 | 7.50 | > 6390 |  |  |  |  |  |  | 
7 | CNc1ccc(S(=O)(=O)N(CC(C)C)C[C@@H](O)[C@H](Cc2ccccc2)NC(=O)[C@@H]2COCCN2)cc1 | > 200000 | 7.02 | > 2090 |  |  |  |  |  |  | 
8 | CC(C)CN(C[C@@H](O)[C@H](Cc1ccccc1)NC(=O)[C@@H]1COCCN1)S(=O)(=O)c1ccc(NO)cc1 | 145000 | 8.52 | 48400 |  |  |  |  |  | 93 | 
9 | COc1ccc(S(=O)(=O)N(CC(C)C)C[C@@H](O)[C@H](Cc2ccccc2)NC(=O)OC[C@H]2CNCCO2)cc1 | > 200000 | 9.17 | > 299000 |  |  |  |  |  | 100 | 
10 | COc1ccc(S(=O)(=O)N(CC(C)C)C[C@@H](O)[C@H](Cc2ccccc2)NC(=O)[C@@H]2COCCN2)cc1 | > 200000 | 9.41 | > 513000 |  |  | 6.47 | 5.50 |  | 100 | 9
11 | COc1ccc(S(=O)(=O)N(CC(C)C)C[C@@H](O)[C@H](Cc2ccccc2)NC(=O)[C@H]2CNCCO2)cc1 | > 200000 | 7.93 | > 17200 |  |  |  |  |  |  | 
12 | CC(C)CN(C[C@@H](O)[C@H](Cc1ccccc1)NC(=O)[C@H]1CNCCO1)S(=O)(=O)c1ccc(N)cc1 | > 200000 | 7.27 | > 3680 |  |  |  |  |  |  | 
13 | CC(C)CN(C[C@@H](O)[C@H](Cc1ccccc1)NC(=O)[C@@H]1COCCN1C)S(=O)(=O)c1ccc(O)cc1 | 135000 | 8.92 | 113000 |  |  | 6.77 | 5.66 |  | 100 | 13
14 | CC(C)CN(C[C@@H](O)[C@H](Cc1ccccc1)NS(=O)(=O)N1CCOCC1)S(=O)(=O)c1ccc(N)cc1 | 101000 | 7.45 | 2860 |  |  |  |  |  |  | 
15 | CC(C)CN(C[C@@H](O)[C@H](Cc1ccccc1)NC(=O)[C@H]1CNCCO1)S(=O)(=O)c1ccc(NO)cc1 | 11200 | 7.47 | 328 |  |  |  |  |  |  | 
16 | COc1ccc(S(=O)(=O)N(CC(C)C)C[C@@H](O)[C@H](Cc2ccccc2)NC(=O)OC[C@H]2CN(C)CCO2)cc1 | > 200000 | 8.65 | > 88900 |  |  |  |  |  | 100 | 
17 | CC(C)CN(C[C@@H](O)[C@H](Cc1ccccc1)NC(=O)OC[C@H]1CNCCO1)S(=O)(=O)c1ccc(N)cc1 | 200000 | 7.71 | > 10100 |  |  |  |  |  |  | 
18 | CC(C)CN(C[C@@H](O)[C@H](Cc1ccccc1)NC(=O)[C@@H]1COCCN1)S(=O)(=O)c1ccc(O)cc1 | > 200000 | 10.05 | > 2.22e+06 | 8.08 |  | 7.05 | 5.89 | 7.87 | 100 | 14
19 | CC(C)CN(C[C@@H](O)[C@H](Cc1ccccc1)NC(=O)OC[C@H]1CN(C)CCO1)S(=O)(=O)c1ccc(O)cc1 | > 200000 | 8.81 | > 130000 |  |  |  |  |  |  | 
20 | CNc1ccc(S(=O)(=O)N(CC(C)C)C[C@@H](O)[C@H](Cc2ccccc2)NC(=O)[C@H]2CNCCO2)cc1 | > 200000 | 7.04 | > 2220 |  |  |  |  |  |  | 
21 | COc1ccc(S(=O)(=O)N(CC(C)C)C[C@@H](O)[C@H](Cc2ccccc2)NC(=O)CN2CCS(=O)(=O)CC2)cc1 | > 200000 | 7.61 | > 8230 |  |  |  |  |  |  | 
22 | COc1ccc(S(=O)(=O)N(CC(C)C)C[C@@H](O)[C@H](Cc2ccccc2)NS(=O)(=O)N2CCOCC2)cc1 | 60300 | 7.72 | 3140 |  |  |  |  |  |  | 
23 | CC(C)CN(C[C@@H](O)[C@H](Cc1ccccc1)NC(=O)CN1CCS(=O)(=O)CC1)S(=O)(=O)c1ccc(O)cc1 | > 200000 | 7.97 | > 18800 |  |  |  |  |  |  | 
24 | CC(C)CN(C[C@@H](O)[C@H](Cc1ccccc1)NC(=O)[C@@H]1COCCN1C)S(=O)(=O)c1ccc(NO)cc1 | 94600 | 7.57 | 3550 |  |  |  |  |  | 78 | 
25 | CC(C)CN(C[C@@H](O)[C@H](Cc1ccccc1)NC(=O)OC[C@H]1CNCCO1)S(=O)(=O)c1ccc(NO)cc1 | > 200000 | 8.61 | > 81600 |  |  |  |  |  |  | 
26 | CC(C)CN(C[C@@H](O)[C@H](Cc1ccccc1)NC(=O)[C@H]1CNCCO1)S(=O)(=O)c1ccc(O)cc1 | > 200000 | 8.25 | > 35400 |  |  |  |  |  |  | 
27 | COc1ccc(S(=O)(=O)N(CC(C)C)C[C@@H](O)[C@H](Cc2ccccc2)NC(=O)[C@@H]2COCCN2C)cc1 | 132000 | 8.32 | 27300 |  |  | 6.46 | 5.70 |  | 100 | 6
